Results as given in patent US4971962A, “Cephalosporin compounds” (Lucky, Ltd., priority 1988, dated 1990).
In brackets after ≈: the same amount, converted by molar mass. Where two headings read alike, the source gives them in different places.

Tests used:
[1] = system: Bacillus subtilis ATCC 6633; test: In-vitro antibacterial activity (MIC), two-fold dilution method; type: cell-based; conditions: read-out: minimal inhibitory concentration (MIC)
Method: (§1) In-vitro antibacterial activity was determined by the two-fold dilution method as described below. 2 μl of the test microorganism which has the 10^7 CFU per ml was inoculated on the Muller-Hinton agar which has been dispersed by the test compound, and was incubated at 37° C. for 20 hours.

[2] = system: Enterobacter aerogenes ATCC 29751; test: as above; type: cell-based; conditions: Klebsiella aerogenes, read-out: minimal inhibitory concentration (MIC)
Method: as §1

[3] = system: Escherichia coli ATCC 10536; test: as above; type: cell-based; conditions: read-out: minimal inhibitory concentration (MIC)
Method: as §1

[4] = system: Klebsiella pneumoniae ATCC 10031; test: as above; type: cell-based; conditions: read-out: minimal inhibitory concentration (MIC)
Method: as §1

[5] = system: Proteus mirabilis ATCC 25933; test: as above; type: cell-based; conditions: read-out: minimal inhibitory concentration (MIC)
Method: as §1

[6] = system: Pseudomonas aeruginosa ATCC 10145; test: as above; type: cell-based; conditions: read-out: minimal inhibitory concentration (MIC)
Method: as §1

[7] = system: Pseudomonas aeruginosa ATCC 25619; test: as above; type: cell-based; conditions: read-out: minimal inhibitory concentration (MIC)
Method: as §1

[8] = system: Pseudomonas aeruginosa ATCC 27853; test: as above; type: cell-based; conditions: read-out: minimal inhibitory concentration (MIC)
Method: as §1

[9] = system: Salmonella typhimurium ATCC 14028; test: as above; type: cell-based; conditions: Salmonella enterica, read-out: minimal inhibitory concentration (MIC)
Method: as §1

[10] = system: Serratia marcescens ATCC 27117; test: as above; type: cell-based; conditions: read-out: minimal inhibitory concentration (MIC)
Method: as §1

[11] = system: Staphylococcus aureus ATCC 10537; test: as above; type: cell-based; conditions: read-out: minimal inhibitory concentration (MIC)
Method: as §1

[12] = system: gram-negative bacteria including Pseudomonas aeruginosa; test: In-vitro antibacterial activity, comparison over gram-negative bacteria; type: cell-based; conditions: from Table 1
Method: as §1

[13] = system: gram-positive bacteria, especially, Staphylococcus aureus and Bacillus subtilis; test: In-vitro antibacterial activity, comparison over gram-positive bacteria; type: cell-based; conditions: from Table 1
Method: as §1

[14] = rat (SD), i.v. 20 mg/kg, II Compartment; cited from earlier work
[15] = dog (Beagle), i.v. 20 mg/kg, II Compartment; cited from earlier work
[16] = monkey (Rhesus), i.v. 20 mg/kg, II Compartment; cited from earlier work
[17] = Pharmacokinetics of compound (Ib) in rat, intravenous, plasma by HPLC; type: in vivo, rat (Fischer); conditions: for half-life: rat, 14.29 mg/kg
Method: The pharmacokinetics of the invented compound (Ib) was studied in rat (Fischer, 6~10 weeks). The compound (Ib) was dissolved in phosphate bupper solution(0.05M; pH=9) and intraveneouly administered in a dose of 14.29 mg/kg to four rats, and blood samples from the rats were taken at 1, 5, 10 and 30 mins and 1, 2, 3, 5 and 7 hours after administration of the compound (Ib), respectively.
The concentrations in plasma were measured by HPLC analysis of blood samples, and the results of average concentrations in plasma were listed in Table 2.

[18] = Bacillus subtilis, ATCC6633, 20 h
[19] = ATCC29751, Enterobacter aerogenes ATCC 29751, Muller-Hinton agar, 37° C., 20 hours
[20] = ATCC10536, Escherichia coli ATCC 10536, Muller-Hinton agar, 37° C., 20 hours
[21] = ATCC10031, Klebsiella pneumoniae ATCC 10031, Muller-Hinton agar, 37° C., 20 hours
[22] = ATCC25933, Proteus mirabilis ATCC 25933, Muller-Hinton agar, 37° C., 20 hours
[23] = ATCC10145, Pseudomonas aeruginosa ATCC 10145, Muller-Hinton agar, 37° C., 20 hours
[24] = ATCC25619, Pseudomonas aeruginosa ATCC 25619, Muller-Hinton agar, 37° C., 20 hours
[25] = ATCC27853, Pseudomonas aeruginosa ATCC 27853, Muller-Hinton agar, 37° C., 20 hours
[26] = Salmonella typhimurium ATCC 14028, Muller-Hinton agar, 37° C., 20 hours
[27] = ATCC27117, Serratia marcescens ATCC 27117, Muller-Hinton agar, 37° C., 20 hours
[28] = Staphylococcus aureus, ATCC10537, 20 h
[29] = ATCC6633, Bacillus subtilis ATCC 6633, Muller-Hinton agar, 37° C., 20 hours
[30] = ATCC10537, Staphylococcus aureus ATCC 10537, Muller-Hinton agar, 37° C., 20 hours
[31] = Pseudomonas aeruginosa, ATCC10145, 20 h

SMILES	MIC [1, 18] [µg/mL]	MIC [2, 19] [µg/mL]	MIC [3, 20] [µg/mL]	MIC [4, 21] [µg/mL]	MIC [5, 22] [µg/mL]	MIC [6, 23] [µg/mL]	MIC [7, 24] [µg/mL]	MIC [8, 25] [µg/mL]	MIC [9, 26] [µg/mL]	MIC [10, 27] [µg/mL]	MIC [11, 28] [µg/mL]	activity against gram-negative bacteria as compared with ceftazidime and moxalactam [12]	activity against gram-positive bacteria as compared with ceftazidime and moxalactam [13]	other results
CC(=O)OCC1=C(C(=O)O)N2C(=O)C(NC(=O)/C(=N\OCc3ccco3)c3csc(N)n3)C2SC1 (centres unmarked) [(Ia), 7-[(Z)-2-(2-Aminothiazol-4-yl)-2-(2-furfuryl-oxyimino)acetamido]-3-acetoxymethyl-3-cephem-4-carboxylic acid]	0.5 (≈ 0.959 µM)	16 (≈ 30.7 µM)	0.5 (≈ 0.959 µM)	< 0.0312	0.125 (≈ 0.24 µM)	16 (≈ 30.7 µM)	1 (≈ 1.92 µM)	16 (≈ 30.7 µM)	2 (≈ 3.83 µM)	1 (≈ 1.92 µM)	1 (≈ 1.92 µM)	almost equally active	superior antimicrobiral activities	–
Cn1nnnc1SCC1=C(C(=O)O)N2C(=O)C(NC(=O)/C(=N\OCc3ccco3)c3csc(N)n3)C2SC1 (centres unmarked) [(Ic), Sodium 7-[(Z)-2-(2-aminothiazol-4-yl)-2-(2-furfuryloxyimino)-acetamido]-3-[(1-methyl-1H-tetrazol-5-yl)thiomethyl]-3-cephem-4-carboxylate]	–	8	0.5	< 0.0315	0.25	16	1	16	2	1	–	almost equally active	superior antimicrobiral activities	MIC [1, 29]: 0.5 µg/mL; MIC [11, 30]: 1 µg/mL
CO/N=C(\C(=O)N[C@@H]1C(=O)N2C(C(=O)O)=C(COC(C)=O)CS[C@H]12)c1csc(N)n1 [Cefotaxime]	–	–	–	–	–	–	–	–	–	–	–	–	–	AUC [14]: 13500 ng·h/mL; T1/2 (α) [14]: 4.55 min; T1/2 (β) [14]: 14.8 min
CC(C)(O/N=C(\C(=O)N[C@@H]1C(=O)N2C(C(=O)[O-])=C(C[n+]3ccccc3)CS[C@H]12)c1csc(N)n1)C(=O)O [Ceftazidime, reference compound]	16 (≈ 29.3 µM)	–	–	–	–	–	–	–	–	–	4 (≈ 7.32 µM)	–	–	MIC ([2]; ATCC29751, 20 h): 4 µg/mL (≈ 7.32 µM); MIC ([3]; Escherichia coli, ATCC10536, 20 h): 0.125 µg/mL (≈ 0.229 µM); MIC ([4]; Klebsiella pneumoniae, ATCC10031, 20 h): 0.125 µg/mL (≈ 0.229 µM); MIC ([5]; Proteus mirabilis, ATCC25933, 20 h): 0.0625 µg/mL (≈ 0.114 µM); MIC [6, 31]: 2 µg/mL (≈ 3.66 µM); MIC ([7]; Pseudomonas aeruginosa, ATCC25619, 20 h): 1 µg/mL (≈ 1.83 µM); MIC ([8]; Pseudomonas aeruginosa, ATCC27853, 20 h): 2 µg/mL (≈ 3.66 µM); MIC ([9]; 20 h): 0.25 µg/mL (≈ 0.457 µM); MIC ([10]; Serratia marcescens, ATCC27117, 20 h): 0.0625 µg/mL (≈ 0.114 µM); AUC [15]: 93000 ng·h/mL
CO/N=C(\C(=O)N[C@@H]1C(=O)N2C(C(=O)O)=C(CSc3nc(=O)c(=O)[nH]n3C)CS[C@H]12)c1csc(N)n1 [Ceftriaxone]	–	–	–	–	–	–	–	–	–	–	–	–	–	AUC [15]: 84300 ng·h/mL; T1/2 (α) [15]: 6.80 min; T1/2 (β) [15]: 50.7 min; AUC [16]: 838000 ng·h/mL; T1/2 (α) [16]: 23.16 min; T1/2 (β) [16]: 204 min
Nc1nc(/C(=N/OCc2ccco2)C(=O)NC2C(=O)N3C(C(=O)[O-])=C(C[n+]4ccccc4)CSC23)cs1 (centres unmarked) [Compound (Ib), 7-[(Z)-2-(2-Aminothiazol-4-yl)-2-(2-furfuryl-oxyimino)acetamido]-3-(1-pyridiniummethyl)-3-cephem-4-carboxylate]	–	4 (≈ 7.4 µM)	0.5 (≈ 0.925 µM)	0.0625 (≈ 0.116 µM)	0.5 (≈ 0.925 µM)	8 (≈ 14.8 µM)	1 (≈ 1.85 µM)	8 (≈ 14.8 µM)	2 (≈ 3.7 µM)	0.5 (≈ 0.925 µM)	0.25 (≈ 0.462 µM)	almost equally active	superior antimicrobiral activities	MIC [1, 29]: 0.25 µg/mL (≈ 0.462 µM); AUC ratio to cefotaxime ([17]; Ib in rat vs cefotaxime in rat): 6.5 times; T1/2 (β) ratio to cefotaxime in rat ([17]; Ib in rat vs cefotaxime in rat): 6.4 times; T1/2 (β) ratio to ceftazidime or ceftriaxone in dog ([17]; Ib in rat vs ceftazidime or ceftriaxone in dog): 1.9 times; AUC ([17]; plasma, iv, rat (Fischer), i.v. 14.29 mg/kg, II Compartment): 62400 ng·h/mL; concentration at 1 min ([17]; plasma, iv, rat (Fischer), i.v. 14.29 mg/kg, average of four rats, 1 min): 112000 ng/mL; concentration at 5 min ([17]; plasma, iv, rat (Fischer), i.v. 14.29 mg/kg, average of four rats, 5 min): 60600 ng/mL; concentration at 10 min ([17]; plasma, iv, rat (Fischer), i.v. 14.29 mg/kg, average of four rats, 10 min): 43000 ng/mL; concentration at 0.5 h ([17]; plasma, iv, rat (Fischer), i.v. 14.29 mg/kg, average of four rats, 30 min): 20700 ng/mL; concentration at 1 h ([17]; plasma, iv, rat (Fischer), i.v. 14.29 mg/kg, average of four rats, 1 hr): 12600 ng/mL; concentration at 2 h ([17]; plasma, iv, rat (Fischer), i.v. 14.29 mg/kg, average of four rats, 2 hr): 6100 ng/mL; concentration at 3 h ([17]; plasma, iv, rat (Fischer), i.v. 14.29 mg/kg, average of four rats, 3 hr): 4300 ng/mL; concentration at 5 h ([17]; plasma, iv, rat (Fischer), i.v. 14.29 mg/kg, average of four rats, 5 hr): 1600 ng/mL; concentration at 7 h ([17]; plasma, iv, rat (Fischer), i.v. 14.29 mg/kg, average of four rats, 7 hr): 900 ng/mL; half-life ([17]; plasma, iv, rat (Fischer), i.v. 14.29 mg/kg, II Compartment, read-out: T1/2 (α)): 6.21 min; half-life ([17]; plasma, iv, rat (Fischer), i.v. 14.29 mg/kg, II Compartment, read-out: T1/2 (β)): 95 min
CO[C@@]1(NC(=O)C(C(=O)O)c2ccc(O)cc2)C(=O)N2C(C(=O)O)=C(CSc3nnnn3C)CO[C@@H]21 (some centres unmarked) [Moxalactam, reference compound]	8 (≈ 15.4 µM)	1 (≈ 1.92 µM)	0.125 (≈ 0.24 µM)	0.25 (≈ 0.48 µM)	0.25 (≈ 0.48 µM)	–	8 (≈ 15.4 µM)	16 (≈ 30.7 µM)	0.25 (≈ 0.48 µM)	0.125 (≈ 0.24 µM)	–	–	–	MIC [6, 31]: 32 µg/mL (≈ 61.5 µM); MIC [11, 30]: 4 µg/mL (≈ 7.69 µM)
